The text below walks through data of paper PMC8968952, “Modulation of ERCC1-XPF Heterodimerization Inhibition via Structural Modification of Small Molecule Inhibitor Side-Chains” (Frontiers in Oncology, 2022).

In this series the target is CYP2D6 (Homo sapiens, UniProt P10635). As to the kind of experiment: Cytochrome P450 inhibition, CYP2D6. Type of series: in vitro ADME. As for the experimental part: The ADME (absorption, distribution, metabolism, and excretion) profile of our lead compound 6 was determined by standard protocols carried out by WuXi AppTec (Shanghai) Co (https://www.wuxiapptec.com/). The following tests were conducted: distribution coefficient (log D at pH 7.4), aqueous solubility (Kinetic), metabolic stability in human liver microsomes and cryopreserved human hepatocytes, bidirectional permeability in Caco-2 cells, serum protein binding, and cytochrome P450 (CYP) inhibition (CYP1A2, CYP2C9, CYP2C19, CYP2D6, and CYP3A4-M).
Chain of CYP2D6 (P10635 whole entry): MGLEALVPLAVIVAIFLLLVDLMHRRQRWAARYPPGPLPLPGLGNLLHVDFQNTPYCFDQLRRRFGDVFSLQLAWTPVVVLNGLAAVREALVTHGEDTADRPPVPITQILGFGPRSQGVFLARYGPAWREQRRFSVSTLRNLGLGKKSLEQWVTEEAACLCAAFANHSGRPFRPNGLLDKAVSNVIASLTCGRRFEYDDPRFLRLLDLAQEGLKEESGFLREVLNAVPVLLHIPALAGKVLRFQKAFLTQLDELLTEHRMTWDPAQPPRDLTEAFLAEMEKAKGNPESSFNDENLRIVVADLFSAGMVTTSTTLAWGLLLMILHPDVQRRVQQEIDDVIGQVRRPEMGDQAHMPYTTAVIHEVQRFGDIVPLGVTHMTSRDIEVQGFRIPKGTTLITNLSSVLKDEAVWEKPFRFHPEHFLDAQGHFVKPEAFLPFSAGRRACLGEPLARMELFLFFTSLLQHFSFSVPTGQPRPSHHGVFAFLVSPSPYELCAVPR

Usually IC50 stands for the concentration that inhibits the measured activity by half. High values mean weaker potency in that assay, low ones greater potency in that assay. For `COc1ccc2nc3cc(Cl)ccc3c(Nc3ccc(O)c(CN4CCN(CCN(C(C)C)C(C)C)CC4)c3)c2c1` [Compound 6], the “CYP2D6 inhibition grade (in words)” value is on record as “moderate inhibitor” and the IC50 was 2920 nM.
